Reference: the NIST ThermoML archive (doi:10.1016/j.jct.2008.02.016)
± gives the expanded uncertainty stated by the source.

Details: Liquid

| Compound | vapor or sublimation pressure (303.15 K) [kPa] | vapor or sublimation pressure (313.15 K) [kPa] | vapor or sublimation pressure (323.15 K) [kPa] |
| --- | --- | --- | --- |
| CCCCCCC [heptane] | 7.87 ± 0.16 | 12.33 ± 0.22 | 18.95 ± 0.3 |
| CCCCCC [hexane] | 25.01 ± 0.37 | 37.54 ± 0.53 | 54.39 ± 0.74 |
